Measured values taken from patent US10131652B2, “Pyrimidinyloxy benzene derivatives as herbicides” (E. I. DU PONT DE NEMOURS AND COMPANY, priority 2014, dated 2018).
Read-outs that look alike come from different tables or passages of the source.

Columns and labels:
Test in all cases: Test E pre-/postemergence plant response
Format in all cases: in vivo
[1] = system: Italian ryegrass (Lolium multiflorum); settings: scale 0 to 100, read-out: Plant response rating, Ryegrass, Italian; for pest or weed control at 16 g/ha: 16 g ai/ha; for pest or weed control at 31 g/ha: 31 g ai/ha; for pest or weed control at 62 g/ha: 62 g ai/ha; for pest or weed control at 125 g/ha: 125 g ai/ha
Method in brief: (§1)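 Pre-emergence: seeds sown in silt loam soil and sprayed with test chemicals in a non-phytotoxic solvent/surfactant mix. Post-emergence: plants at 2–18 cm (1- to 4-leaf stage) in peat/vermiculite medium treated with the same formulation. Visual rating versus controls after 7–21 days, 0 (no effect) to 100 (complete control).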

[2] = system: bluegrass (annual bluegrass, Poa annua); settings: scale 0 to 100, read-out: Plant response rating, Bluegrass; for pest or weed control at 16 g/ha: 16 g ai/ha; for pest or weed control at 31 g/ha: 31 g ai/ha; for pest or weed control at 62 g/ha: 62 g ai/ha; for pest or weed control at 125 g/ha: 125 g ai/ha
Method in brief: as §1

[3] = system: chickweed (common chickweed, Stellaria media); settings: scale 0 to 100, read-out: Plant response rating, Chickweed; for pest or weed control at 16 g/ha: 16 g ai/ha; for pest or weed control at 31 g/ha: 31 g ai/ha; for pest or weed control at 62 g/ha: 62 g ai/ha; for pest or weed control at 125 g/ha: 125 g ai/ha
Method in brief: as §1

[4] = system: field violet (Viola arvensis); settings: scale 0 to 100, read-out: Plant response rating, Field Violet; for pest or weed control at 16 g/ha: 16 g ai/ha; for pest or weed control at 31 g/ha: 31 g ai/ha; for pest or weed control at 62 g/ha: 62 g ai/ha; for pest or weed control at 125 g/ha: 125 g ai/ha
Method in brief: as §1

[5] = system: galium (catchweed bedstraw, Galium aparine); settings: scale 0 to 100, read-out: Plant response rating, Galium; for pest or weed control at 16 g/ha: 16 g ai/ha; for pest or weed control at 31 g/ha: 31 g ai/ha; for pest or weed control at 62 g/ha: 62 g ai/ha; for pest or weed control at 125 g/ha: 125 g ai/ha
Method in brief: as §1

[6] = system: lambsquarters (Chenopodium album); settings: scale 0 to 100, read-out: Plant response rating, Lambsquarters; for pest or weed control at 16 g/ha: 16 g ai/ha; for pest or weed control at 31 g/ha: 31 g ai/ha; for pest or weed control at 62 g/ha: 62 g ai/ha; for pest or weed control at 125 g/ha: 125 g ai/ha
Method in brief: as §1

[7] = system: speedwell (bird's-eye speedwell, Veronica persica); settings: scale 0 to 100, read-out: Plant response rating, Speedwell; for pest or weed control at 16 g/ha: 16 g ai/ha; for pest or weed control at 62 g/ha: 62 g ai/ha; for pest or weed control at 125 g/ha: 125 g ai/ha
Method in brief: as §1

[8] = system: spring barley (Hordeum vulgare); settings: post-emergence, Postemergence
Method in brief: as §1

[9] = system: spring wheat (Triticum aestivum); settings: post-emergence, Postemergence, scale 0 to 100, read-out: Plant response rating, Wheat, Spring
Method in brief: as §1

[10] = system: wild radish (Raphanus raphanistrum); settings: scale 0 to 100, read-out: Plant response rating, Radish, Wild; for pest or weed control at 16 g/ha: 16 g ai/ha; for pest or weed control at 31 g/ha: 31 g ai/ha; for pest or weed control at 62 g/ha: 62 g ai/ha; for pest or weed control at 125 g/ha: 125 g ai/ha
Method in brief: as §1

[11] = system: winter wheat (Triticum aestivum); settings: post-emergence, Postemergence, scale 0 to 100, read-out: Plant response rating, Wheat, Winter
Method in brief: as §1

FC(F)c1cc(-c2ccccc2Oc2ncc(Cl)cn2)no1 [Compound 35, 5-chloro-2-[2-[5-(difluoromethyl)-3-isoxazolyl]phenoxy]pyrimidine]
60%: pest or weed control at 125 g/ha ([1]; post-emergence, Postemergence) | pest or weed control at 125 g/ha ([2]; post-emergence, Postemergence) | pest or weed control at 16 g/ha ([4]; post-emergence, Postemergence)
90%: pest or weed control at 62 g/ha ([4]; pre-emergence, Preemergence) | pest or weed control at 125 g/ha ([6]; post-emergence, Postemergence) | pest or weed control at 62 g/ha ([6]; pre-emergence, Preemergence)
75%: pest or weed control at 125 g/ha ([1]; pre-emergence, Preemergence) | pest or weed control at 31 g/ha ([3]; post-emergence, Postemergence) | pest or weed control at 62 g/ha ([3]; post-emergence, Postemergence) | pest or weed control at 62 g/ha ([4]; post-emergence, Postemergence) | pest or weed control at 125 g/ha ([4]; post-emergence, Postemergence) | pest or weed control at 62 g/ha ([5]; post-emergence, Postemergence) | pest or weed control at 16 g/ha ([7]; post-emergence, Postemergence) | pest or weed control at 31 g/ha ([10]; post-emergence, Postemergence)
5%: pest or weed control at 31 g/ha ([1]; post-emergence, Postemergence) | plant injury at 16 g/ha ([8]; 16 g ai/ha, scale 0 to 100, read-out: Plant response rating, Barley, Spring) | plant injury at 31 g/ha ([8]; 31 g ai/ha, scale 0 to 100, read-out: Plant response rating, Barley, Spring) | plant injury at 16 g/ha ([11]; 16 g ai/ha)
20%: pest or weed control at 31 g/ha ([2]; post-emergence, Postemergence)
95%: pest or weed control at 62 g/ha ([3]; pre-emergence, Preemergence) | pest or weed control at 125 g/ha ([10]; post-emergence, Postemergence) | pest or weed control at 31 g/ha ([10]; pre-emergence, Preemergence)
15%: pest or weed control at 16 g/ha ([2]; post-emergence, Postemergence) | pest or weed control at 16 g/ha ([4]; pre-emergence, Preemergence) | plant injury at 31 g/ha ([11]; 31 g ai/ha)
40%: pest or weed control at 62 g/ha ([2]; post-emergence, Postemergence) | plant injury at 125 g/ha ([9]; 125 g ai/ha) | plant injury at 125 g/ha ([11]; 125 g ai/ha)
55%: pest or weed control at 16 g/ha ([3]; pre-emergence, Preemergence) | pest or weed control at 31 g/ha ([5]; pre-emergence, Preemergence)
85%: pest or weed control at 125 g/ha ([5]; post-emergence, Postemergence) | pest or weed control at 62 g/ha ([6]; post-emergence, Postemergence) | pest or weed control at 31 g/ha ([6]; pre-emergence, Preemergence) | pest or weed control at 62 g/ha ([10]; post-emergence, Postemergence)
80%: pest or weed control at 31 g/ha ([5]; post-emergence, Postemergence) | pest or weed control at 16 g/ha ([6]; post-emergence, Postemergence) | pest or weed control at 31 g/ha ([6]; post-emergence, Postemergence)
10%: plant injury at 62 g/ha ([8]; 62 g ai/ha, scale 0 to 100, read-out: Plant response rating, Barley, Spring) | plant injury at 31 g/ha ([9]; 31 g ai/ha)
35%: pest or weed control at 62 g/ha ([1]; pre-emergence, Preemergence) | pest or weed control at 31 g/ha ([2]; pre-emergence, Preemergence) | pest or weed control at 62 g/ha ([2]; pre-emergence, Preemergence)
100%: pest or weed control at 125 g/ha ([3]; post-emergence, Postemergence) | pest or weed control at 31 g/ha ([3]; pre-emergence, Preemergence) | pest or weed control at 125 g/ha ([3]; pre-emergence, Preemergence) | pest or weed control at 125 g/ha ([4]; pre-emergence, Preemergence) | pest or weed control at 62 g/ha ([5]; pre-emergence, Preemergence) | pest or weed control at 125 g/ha ([5]; pre-emergence, Preemergence) | pest or weed control at 125 g/ha ([6]; pre-emergence, Preemergence) | pest or weed control at 31 g/ha ([7]; post-emergence, 31 g ai/ha, Postemergence) | pest or weed control at 62 g/ha ([7]; post-emergence, Postemergence) | pest or weed control at 125 g/ha ([7]; post-emergence, Postemergence) | pest or weed control at 16 g/ha ([7]; pre-emergence, Preemergence) | pest or weed control at 62 g/ha ([7]; pre-emergence, Preemergence) | pest or weed control at 125 g/ha ([7]; pre-emergence, Preemergence) | pest or weed control at 16 g/ha ([10]; pre-emergence, Preemergence) | pest or weed control at 62 g/ha ([10]; pre-emergence, Preemergence) | pest or weed control at 125 g/ha ([10]; pre-emergence, Preemergence)
65%: pest or weed control at 16 g/ha ([3]; post-emergence, Postemergence) | pest or weed control at 31 g/ha ([4]; post-emergence, Postemergence) | pest or weed control at 16 g/ha ([6]; pre-emergence, Preemergence) | pest or weed control at 16 g/ha ([10]; post-emergence, Postemergence)
25%: pest or weed control at 62 g/ha ([1]; post-emergence, Postemergence) | pest or weed control at 31 g/ha ([1]; pre-emergence, Preemergence) | pest or weed control at 16 g/ha ([5]; pre-emergence, Preemergence) | plant injury at 125 g/ha ([8]; 125 g ai/ha, scale 0 to 100 (0 no effect, 100 complete control), read-out: Plant response rating, Barley, Spring) | plant injury at 62 g/ha ([9]; 62 g ai/ha) | plant injury at 62 g/ha ([11]; 62 g ai/ha)
0%: pest or weed control at 16 g/ha ([1]; post-emergence, Postemergence) | pest or weed control at 16 g/ha ([1]; pre-emergence, Preemergence) | pest or weed control at 16 g/ha ([2]; pre-emergence, Preemergence) | plant injury at 16 g/ha ([9]; 16 g ai/ha)
70%: pest or weed control at 125 g/ha ([2]; pre-emergence, Preemergence) | pest or weed control at 31 g/ha ([4]; pre-emergence, Preemergence) | pest or weed control at 16 g/ha ([5]; post-emergence, Postemergence)
